Data as given in publication PMC7180572, “5-Alkylamino-N-phenylpyrazine-2-carboxamides: Design, Preparation, and Antimycobacterial Evaluation” (Molecules, 2020).
In brackets after ≈: the same amount, converted by molar mass. Like-named read-outs stand apart in the source and are kept apart here.

Legend:
[1] = test system: Mycobacterium tuberculosis H37Ra ITM-M006710 (ATCC 9431); assay: Microdilution broth, modified Microplate Alamar Blue Assay, whole cell growth inhibition; type: cell-based; conditions: Mycobacterium tuberculosis; in vitro, Middlebrook 7H9 broth, resazurin; read-out: MIC Mtb H37Ra
[2] = test system: Klebsiella pneumoniae ATCC 10031, CCM 4415; assay: Antibacterial microdilution broth method (EUCAST)
[3] = test system: Staphylococcus aureus spp.aureus ATCC 29213, CCM 4223; assay: Antibacterial microdilution broth method (EUCAST); type: cell-based; conditions: read-out: MIC SA
[4] = test system: Pseudomonas aeruginosa ATCC 27853, CCM 3955; assay: Antibacterial microdilution broth method (EUCAST); type: cell-based; conditions: read-out: MIC PA
[5] = test system: Candida krusei ATCC 6258, CCM 8271; assay: Antifungal microdilution broth method (EUCAST); type: cell-based; conditions: Pichia kudriavzevii
[6] = test system: Staphylococcus aureus methicillin resistant ATCC 43300, CCM 4750; assay: microbe, parasite or virus in culture; type: cell-based; conditions: ATCC 43300 / CCM 4750 / MRSA, read-out: MIC MRSA
[7] = test system: Mycobacterium smegmatis DSM 43465 (ATCC 607); assay: Microdilution broth, modified Microplate Alamar Blue Assay, whole cell growth inhibition; type: cell-based; conditions: Mycolicibacterium smegmatis, read-out: MIC Mycobacterium smegmatis
[8] = test system: Mycobacterium aurum DSM 43999 (ATCC 23366); assay: as above; type: cell-based; conditions: Mycolicibacterium aurum, read-out: MIC Mycobacterium aurum
HepG2 cells = assay: HepG2 cytotoxicity, CellTiter 96 (MTS) assay; type: cell-based, human; conditions: for IC50: Homo sapiens, HepG2, 24 h, read-out: HepG2 IC50
[9] = test system: Candida albicans ATCC 24433, CCM 8320; assay: Antifungal microdilution broth method (EUCAST); type: cell-based
[10] = test system: Candida tropicalis ATCC 750, CCM 8264; assay: Antifungal microdilution broth method (EUCAST); type: cell-based; conditions: read-out: MIC CT
[11] = test system: Escherichia coli ATCC 25922, CCM 3954; assay: Antibacterial microdilution broth method (EUCAST); type: cell-based; conditions: read-out: MIC EC
[12] = test system: Trichophyton interdigitale ATCC 9533, CCM 8377; assay: Antifungal microdilution broth method (EUCAST); type: cell-based; conditions: read-out: MIC TI
[13] = test system: Aspergillus flavus CCM 8363; assay: Antifungal microdilution broth method (EUCAST); type: cell-based; conditions: read-out: MIC AFla
[14] = test system: Enterococcus faecalis ATCC 29212, CCM 4224; assay: Antibacterial microdilution broth method (EUCAST); type: cell-based; conditions: read-out: MIC EF
[15] = test system: Candida parapsilosis ATCC 22019, CCM 8260; assay: Antifungal microdilution broth method (EUCAST); type: cell-based; conditions: Lodderomyces parapsilosis
[16] = test system: Staphylococcus epidermidis ATCC 12228, CCM 4418; assay: Antibacterial microdilution broth method (EUCAST); type: cell-based; conditions: read-out: MIC SE
[17] = test system: Absidia corymbifera CCM 8077 (Lichtheimia corymbifera); assay: Antifungal microdilution broth method (EUCAST); type: cell-based; conditions: read-out: MIC AC
[18] = test system: Aspergillus fumigatus ATCC 204305; assay: Antifungal microdilution broth method (EUCAST); type: cell-based; conditions: read-out: MIC AF
[19] = test system: Acinetobacter baumanii ATCC 19606, DSM 30007; assay: Antibacterial microdilution broth method (EUCAST); type: cell-based; conditions: Acinetobacter baumannii

## CCCCCNc1cnc(C(=O)Nc2cccc(C(F)(F)F)c2)cn1 [Compound 1c, 5-(Pentylamino)-N-(3-(trifluoromethyl)phenyl)pyrazine-2-carboxamide]
[1]
  MIC: 3.13 µg/mL (≈ 8.88 µM)
[2]; 24h
  MIC KP: > 500 µM
[2]; 48h
  MIC KP: > 500 µM
[3]; 24 h
  MIC: > 500 µM
[3]; 48 h
  MIC: > 500 µM
[4]; 72 h
  MIC: > 500 µM
[4]; 120 h
  MIC: > 500 µM
[5]; 24 h, read-out: MIC CK
  MIC: 62.5 µM (≈ 22 µg/mL)
[5]; 48 h, read-out: MIC CK
  MIC: 62.5 µM (≈ 22 µg/mL)
[5]; read-out: MIC CK (Candida krusei)
  MIC: 62.5 µM (≈ 22 µg/mL)
[6]; 24 h
  MIC: > 500 µM
[6]; 48 h
  MIC: > 500 µM
[7]
  MIC: 1.56 µg/mL (≈ 4.43 µM)
[8]
  MIC: 3.13 µg/mL (≈ 8.88 µM)
HepG2 cells
  IC50: 18.9 µM
HepG2 cells; IC50 (HepG2)/MIC against Mtb H37Ra (in µM)
  SI, selectivity index: 2.13
[9]; 24 h, read-out: MIC CA
  MIC: > 125 µM
[9]; 48 h, read-out: MIC CA
  MIC: > 125 µM
[9]; read-out: MIC CA (Candida albicans)
  MIC: > 125 µM
[10]; 24 h
  MIC: > 125 µM
[10]; 48 h
  MIC: > 125 µM
[11]; 24 h
  MIC: > 500 µM
[11]; 48 h
  MIC: > 500 µM
[12]; 72 h
  MIC: > 125 µM
[12]; 120 h
  MIC: > 125 µM
[13]; CCM8363, 24 h
  MIC: > 125 µM
[13]; CCM8363, 48 h
  MIC: > 125 µM
[14]; 24 h
  MIC: > 500 µM
[14]; 48 h
  MIC: > 500 µM
[15]; 24 h, read-out: MIC CP
  MIC: 125 µM (≈ 44 µg/mL)
[15]; 48 h, read-out: MIC CP
  MIC: 125 µM (≈ 44 µg/mL)
[15]; read-out: MIC CP (Candida parapsilosis)
  MIC: 125 µM (≈ 44 µg/mL)
other
  melting point: 128 to 129 °C
[16]; 24 h
  MIC: > 500 µM
[16]; 48 h
  MIC: > 500 µM
[17]; CCM8077, 24 h
  MIC: > 125 µM
[17]; CCM8077, 48 h
  MIC: > 125 µM
[18]; ATCC204305, 24 h
  MIC: > 125 µM
[18]; ATCC204305, 48 h
  MIC: > 125 µM
[19]; 24h
  MIC: > 500 µM
[19]; 48h
  MIC: > 500 µM

## CCCCCCNc1cnc(C(=O)Nc2cccc(C(F)(F)F)c2)cn1 [Compound 1d, 5-(Hexylamino)-N-(3-(trifluoromethyl)phenyl)pyrazine-2-carboxamide]
[1]
  MIC: ≥ 500 µg/mL
[2]; 24h
  MIC KP: > 500 µM
[2]; 48h
  MIC KP: > 500 µM
[3]; 24 h
  MIC: > 500 µM
[3]; 48 h
  MIC: > 500 µM
[4]; 72 h
  MIC: > 500 µM
[4]; 120 h
  MIC: > 500 µM
[5]; 24 h, read-out: MIC CK
  MIC: > 500 µM
[5]; 48 h, read-out: MIC CK
  MIC: > 500 µM
[6]; 24 h
  MIC: > 500 µM
[6]; 48 h
  MIC: > 500 µM
[7]
  MIC: ≥ 500 µg/mL
[8]
  MIC: 25 µg/mL (≈ 68.2 µM)
HepG2 cells
  IC50: > 25 µM
[9]; 24 h, read-out: MIC CA
  MIC: > 500 µM
[9]; 48 h, read-out: MIC CA
  MIC: > 500 µM
[10]; 24 h
  MIC: > 500 µM
[10]; 48 h
  MIC: > 500 µM
[11]; 24 h
  MIC: > 500 µM
[11]; 48 h
  MIC: > 500 µM
[12]; 72 h
  MIC: > 500 µM
[12]; 120 h
  MIC: > 500 µM
[13]; CCM8363, 24 h
  MIC: > 500 µM
[13]; CCM8363, 48 h
  MIC: > 500 µM
[14]; 24 h
  MIC: > 500 µM
[14]; 48 h
  MIC: > 500 µM
[15]; 24 h, read-out: MIC CP
  MIC: > 500 µM
[15]; 48 h, read-out: MIC CP
  MIC: > 500 µM
other
  melting point: 148 to 149 °C
[16]; 24 h
  MIC: > 500 µM
[16]; 48 h
  MIC: > 500 µM
[17]; CCM8077, 24 h
  MIC: > 500 µM
[17]; CCM8077, 48 h
  MIC: > 500 µM
[18]; ATCC204305, 24 h
  MIC: > 500 µM
[18]; ATCC204305, 48 h
  MIC: > 500 µM
[19]; 24h
  MIC: > 500 µM
[19]; 48h
  MIC: > 500 µM

## CCCCCCCNc1cnc(C(=O)Nc2cccc(C(F)(F)F)c2)cn1 [Compound 1e, 5-(Heptylamino)-N-(3-(trifluoromethyl)phenyl)pyrazine-2-carboxamide]
[1]
  MIC: ≥ 500 µg/mL
[2]; 24h
  MIC KP: > 500 µM
[2]; 48h
  MIC KP: > 500 µM
[3]; 24 h
  MIC: > 500 µM
[3]; 48 h
  MIC: > 500 µM
[4]; 72 h
  MIC: > 500 µM
[4]; 120 h
  MIC: > 500 µM
[5]; 24 h, read-out: MIC CK
  MIC: > 500 µM
[5]; 48 h, read-out: MIC CK
  MIC: > 500 µM
[6]; 24 h
  MIC: > 500 µM
[6]; 48 h
  MIC: > 500 µM
[7]
  MIC: ≥ 500 µg/mL
[8]
  MIC: 62.5 µg/mL (≈ 164 µM)
HepG2 cells
  IC50: 223 µM
[9]; 24 h, read-out: MIC CA
  MIC: > 500 µM
[9]; 48 h, read-out: MIC CA
  MIC: > 500 µM
[10]; 24 h
  MIC: > 500 µM
[10]; 48 h
  MIC: > 500 µM
[11]; 24 h
  MIC: > 500 µM
[11]; 48 h
  MIC: > 500 µM
[12]; 72 h
  MIC: > 500 µM
[12]; 120 h
  MIC: > 500 µM
[13]; CCM8363, 24 h
  MIC: > 500 µM
[13]; CCM8363, 48 h
  MIC: > 500 µM
[14]; 24 h
  MIC: > 500 µM
[14]; 48 h
  MIC: > 500 µM
[15]; 24 h, read-out: MIC CP
  MIC: > 500 µM
[15]; 48 h, read-out: MIC CP
  MIC: > 500 µM
other
  melting point: 148 to 149 °C
[16]; 24 h
  MIC: > 500 µM
[16]; 48 h
  MIC: > 500 µM
[17]; CCM8077, 24 h
  MIC: > 500 µM
[17]; CCM8077, 48 h
  MIC: > 500 µM
[18]; ATCC204305, 24 h
  MIC: > 500 µM
[18]; ATCC204305, 48 h
  MIC: > 500 µM
[19]; 24h
  MIC: > 500 µM
[19]; 48h
  MIC: > 500 µM
